For 23 compounds, T/C results are on record in PubChem BioAssay AID330 (DTP/NCI, 2004).

For this assay, the system named is P388 leukemia ip, CD2F1 mice, survival T/C. Description: NCI In Vivo Anticancer Drug Screen. Data for tumor model P388 Leukemia (intraperitoneal) in CD2F1 (CDF1) mice. As to conditions: endpoint: median survival time, higher = longer survival. The method, boiled down: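 Mice carrying the transplanted tumor received test compound or vehicle. Survival was recorded in each group, and the value is the treated-group measurement divided by that of the vehicle-treated control group.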

[1] abbreviates: dose: 100.0 mg/kg/injection, schedule: Q04DX003 (ip), vehicle: saline.
The mark [2] stands for this setting: dose: 200.0 mg/kg/injection, schedule: Q04DX003 (ip), vehicle: saline.
The mark [3] stands for this setting: dose: 400.0 mg/kg/injection, schedule: Q04DX003 (ip), vehicle: saline.
The mark [4] stands for this setting: dose: 50.0 mg/kg/injection, schedule: Q01DX009 (ip), vehicle: saline with Tween-80.
Where [5] appears, read: dose: 100.0 mg/kg/injection, schedule: Q01DX009 (ip), vehicle: saline with Tween-80.
Where [6] appears, read: dose: 200.0 mg/kg/injection, schedule: Q01DX009 (ip), vehicle: saline with Tween-80.
The mark [7] stands for this setting: dose: 25.0 mg/kg/injection, schedule: Q01DX005 (ip), vehicle: saline with Tween-80.
Where [8] appears, read: dose: 50.0 mg/kg/injection, schedule: Q01DX005 (ip), vehicle: saline with Tween-80.
Where [9] appears, read: dose: 100.0 mg/kg/injection, schedule: Q01DX005 (ip), vehicle: saline with Tween-80.
Where [10] appears, read: dose: 120.0 mg/kg/injection, schedule: Q01DX005 (ip), vehicle: saline with Tween-80.
Setting [11] is: dose: 240.0 mg/kg/injection, schedule: Q01DX005 (ip), vehicle: saline with Tween-80.
Where [12] appears, read: dose: 200.0 mg/kg/injection, schedule: Q01DX005 (ip), vehicle: saline with Tween-80.
Where [13] appears, read: dose: 60.0 mg/kg/injection, schedule: Q01DX005 (ip), vehicle: Klucel (hydroxypropylcellulose) (HPC).
Setting [14] is: dose: 120.0 mg/kg/injection, schedule: Q01DX005 (ip), vehicle: Klucel (hydroxypropylcellulose) (HPC).
Where [15] appears, read: dose: 240.0 mg/kg/injection, schedule: Q01DX005 (ip), vehicle: Klucel (hydroxypropylcellulose) (HPC).

The structures appear in SMILES notation. Several values for one entry are separate records, joined by “and”; a condition that tells them apart may be missing. Identical values can stand only once. Toxic doses and inconclusive results are not listed.

For `O=[N+]([O-])c1nc(-[n+]2ccccc2)[n-]c1Br`, the T/C reads like this: under setting [1], 98 % of control; under setting [2], 100 % of control; under setting [3], 95 % of control.

`Cn1c(=O)c2c(nc(/N=C/c3cccc([N+](=O)[O-])c3)n2C)n(C)c1=O`: the T/C was 100 % of control under setting [1], 94 % of control under setting [2] and 86 % of control under setting [3].

In the case of `CCN(CC)CC[n+]1ccc2c(C)c3[nH]c4ccccc4c3c(C)c2c1`, the T/C runs as follows: (dose: 0.63 mg/kg/injection, schedule: Q04DX002 (ip), vehicle: water) 110 % of control; (dose: 0.78 mg/kg/injection, schedule: Q04DX003 (ip), vehicle: water) 106 % of control; (dose: 1.25 mg/kg/injection, schedule: Q04DX002 (ip), vehicle: water) 115 % of control; (dose: 1.56 mg/kg/injection, schedule: Q04DX003 (ip), vehicle: water) 107 % of control and 120 % of control; (dose: 2.5 mg/kg/injection, schedule: Q04DX002 (ip), vehicle: water) 122 % of control; (dose: 3.12 mg/kg/injection, schedule: Q04DX003 (ip), vehicle: water) 123 % of control. Moreover, the T/C was 124 % of control (dose: 6.25 mg/kg/injection, schedule: Q04DX003 (ip), vehicle: water) and 124 % of control (dose: 12.5 mg/kg/injection, schedule: Q04DX003 (ip), vehicle: water).

`CCOC(=O)Cn1c(=O)cc(-c2ccccc2)oc1=O`: the T/C is 106 % of control under setting [4], 107 % of control under setting [5] and 90 % of control under setting [6].

As for `c1cc2c(cc1NC1=NCCO1)CCC2`, the T/C is 100 % of control (dose: 6.25 mg/kg/injection, schedule: Q04DX003 (ip), vehicle: saline with Tween-80); 100 % of control (dose: 12.5 mg/kg/injection, schedule: Q04DX003 (ip), vehicle: saline with Tween-80); 100 % of control (dose: 25.0 mg/kg/injection, schedule: Q04DX003 (ip), vehicle: saline with Tween-80).

With `COc1cccc2c1C(=O)c1c(O)c3c(c(O)c1C2=O)CC(O)(C(C)=O)CC3OC1CC(NC(=O)CN(C)C)C(O)C(C)O1` (stereo unspecified), the T/C was 109 % of control (dose: 0.25 mg/kg/injection, schedule: Q01DX009 (ip), vehicle: water) and 120 % of control (dose: 0.5 mg/kg/injection, schedule: Q01DX009 (ip), vehicle: water).

For the compound `O=C(NC(=S)Nc1ncn[nH]1)c1ccc(Cl)c(Cl)c1`, the T/C was 104 % of control (dose: 12.5 mg/kg/injection, schedule: Q01DX009 (ip), vehicle: saline with Tween-80); 100 % of control (dose: 25.0 mg/kg/injection, schedule: Q01DX009 (ip), vehicle: saline with Tween-80); 95 % of control under setting [4]; 91 % of control under setting [5]; 92 % of control under setting [6].

On to `CN(C)c1ccc(NC2=C(Cl)C(=O)C(Nc3ccc(N(C)C)cc3)=C(Cl)C2=O)cc1`, for which the T/C reads like this: under setting [7], 101 % of control; under setting [8], 92 % of control; under setting [9], 88 % of control.

On to `CC(C)c1cccc(C(C)C)c1NC(=O)OC1CCCCC1C` (stereo unspecified), for which the T/C (dose: 60.0 mg/kg/injection, schedule: Q01DX005 (ip), vehicle: saline with Tween-80) is 94 % of control; the T/C under setting [10] is 90 % of control; the T/C under setting [11] is 98 % of control.

Consider `Nc1nc2scnc2c(=O)[nH]1`, for which the T/C is 88 % of control (dose: 12.5 mg/kg/injection, schedule: Q01DX005 (ip), vehicle: saline with Tween-80); 101 % of control under setting [7]; 109 % of control and 97 % of control under setting [8]; 102 % of control under setting [9]; 112 % of control under setting [12].

In the case of `Oc1ccc(C(c2cc3c(cc2O)OCO3)N2CCN(C(c3ccc(O)cc3)c3cc4c(cc3O)OCO4)CC2)cc1` (stereo unspecified), the T/C by setting is: under setting [13], 104 % of control; under setting [14], 103 % of control; under setting [15], 100 % of control.

`O=C[O-].[NH2-].[NH2-].[NH2-].[NH2-].[NH2-].[O-][Cl+3]([O-])([O-])O.[Ru+8]`: the T/C (dose: 1.56 mg/kg/injection, schedule: Q04DX003 (ip), vehicle: saline) was 105 % of control; the T/C (dose: 3.13 mg/kg/injection, schedule: Q04DX003 (ip), vehicle: saline) was 104 % of control; the T/C (dose: 6.25 mg/kg/injection, schedule: Q04DX003 (ip), vehicle: saline) was 124 % of control.

Turning to `COP(=O)(CC(=O)CCCCCOC1CCCCO1)OC` (stereo unspecified), the T/C is, setting by setting: (dose: 50.0 mg/kg/injection, schedule: Q01DX005 (ip), vehicle: saline) 100 % of control; (dose: 100.0 mg/kg/injection, schedule: Q01DX005 (ip), vehicle: saline) 100 % of control; (dose: 200.0 mg/kg/injection, schedule: Q01DX005 (ip), vehicle: saline) 99 % of control.

With `CC(C)N=C1NS(=O)(=O)c2ccccc21`, the T/C under setting [8] was 114 % of control, the T/C under setting [9] was 97 % of control and the T/C under setting [12] is 108 % of control.

Take `CCOC(=O)Cc1c[nH]c2ccc(N(CCCl)CCCl)cc12`: the T/C was 204 % of control (dose: 5.0 mg/kg/injection, schedule: Q04DX003 (ip), vehicle: Klucel (hydroxypropylcellulose) (HPC)); 245 % of control (dose: 8.0 mg/kg/injection, schedule: Q04DX003 (ip), vehicle: Klucel (hydroxypropylcellulose) (HPC)); 245 % of control (dose: 12.5 mg/kg/injection, schedule: Q04DX003 (ip), vehicle: Klucel (hydroxypropylcellulose) (HPC)).

`CCOC(=O)C1=C(N)N(S(=O)(=O)c2ccc(C)cc2)CCC(C(=O)OC)=C1`: the T/C under setting [10] was 119 % of control and the T/C under setting [11] was 108 % of control.

`O=[N+]([O-])c1cccc(-c2ccccc2)c1Br`: the T/C is, setting by setting: (dose: 37.5 mg/kg/injection, schedule: Q04DX003 (ip), vehicle: saline with Tween-80) 100 % of control; (dose: 75.0 mg/kg/injection, schedule: Q04DX003 (ip), vehicle: saline with Tween-80) 100 % of control; (dose: 150.0 mg/kg/injection, schedule: Q04DX003 (ip), vehicle: saline with Tween-80) 100 % of control.

As to `O=C1c2ccccc2C(=O)N1CS(=O)(=O)CN1C(=O)c2ccccc2C1=O`, the T/C under setting [1] is 97 % of control, the T/C under setting [2] was 93 % of control and the T/C under setting [3] is 97 % of control.

For the compound `Cc1cccc([NH-])n1.Cc1cccc([NH-])n1.Cc1cccc([NH-])n1.Cc1cccc([NH-])n1.[Cl][Rh][Cl]`, the T/C reads like this: (dose: 6.25 mg/kg/injection, schedule: Q01DX009 (ip), vehicle: DMSO) 101 % of control; (dose: 12.5 mg/kg/injection, schedule: Q01DX009 (ip), vehicle: DMSO) 99 % of control; (dose: 25.0 mg/kg/injection, schedule: Q01DX009 (ip), vehicle: DMSO) 101 % of control; (dose: 50.0 mg/kg/injection, schedule: Q01DX009 (ip), vehicle: saline) 101 % of control.

As to `C=COC(=O)C(NC(=O)OCc1ccccc1)c1ccccc1` (stereo unspecified), the T/C was 102 % of control under setting [8], 101 % of control under setting [9] and 95 % of control under setting [12].

For the compound `Cc1nc(C(=O)c2ccccc2)cnc1-c1ccccc1`, the T/C under setting [13] was 92 % of control, the T/C under setting [14] is 88 % of control and the T/C under setting [15] is 91 % of control.

As to `O=c1[nH]c2ccccc2c(=O)n1-c1ccccc1`, the T/C by setting is: under setting [5], 101 % of control and 109 % of control; under setting [6], 96 % of control; (dose: 400.0 mg/kg/injection, schedule: Q01DX009 (ip), vehicle: saline with Tween-80) 113 % of control and 95 % of control.

With `N=C(N)Sc1cc(O)ccc1O`, the T/C by setting is: (dose: 75.0 mg/kg/injection, schedule: Q01DX009 (ip), vehicle: saline with Tween-80) 118 % of control; (dose: 150.0 mg/kg/injection, schedule: Q01DX009 (ip), vehicle: saline with Tween-80) 113 % of control.
